Measured values as given in patent US20100092453A1, “Method of producing porous microparticles” (priority 2006, published 2010).

Assays:
[1] = Suspension sedimentation analysis (water/Tween 80); type: physicochemical; settings: water/Tween 80 (96:4 v/v)
Procedure: Sedimentation analysis was carried out on suspensions of bendroflumethiazide (BFMT) and sulfadimidine. 25 ml suspensions were prepared by mixing water and Tween 80 (96:4 v/v) with 150 mg of the drug powder. The suspensions were transferred to 25 ml graduated cylinders, mixed thoroughly and their sedimentation observed over time.

[2] = Density measurements (bulk, tap, Carr's compressibility index); type: physicochemical
Procedure: Dublin 12) with a funnel. The weight of the powder required to fill the 1 ml graduated syringe was recorded to calculate bρ. […] The resultant volume was recorded [NT]ρ. Each measurement was performed in triplicate. The Carr's compressibility index of some of the systems was calculated from the following equation: compressibility index(%)=[(tap density-bulk density)/tap density]×100 Lower values of the index are desirable as they indicate better flow.

[3] = In vitro dry powder inhaler deposition, Andersen Cascade Impactor
Procedure: The pulmonary deposition of the dry powders was investigated using an Andersen Cascade Impactor (ACI) (1 ACFM Eight Stage Non-Viable Cascade Impactor, Graseby Andersen, Atlanta, Ga.). […] Size 3 hard gelatin capsules (Farillon Ltd., U.K.) were filled to approximately 50% with the dry powder (approximately 25 mg of powder). […] The amount of powder deposited on each stage of the impactor was determined by weight, UV analysis or HPLC analysis.

[4] = Suspension stability of MDI systems in HFA-134a; type: physicochemical; settings: BFMT in HFA-134a
Procedure: In order to prepare metered dose inhalers, 20 mg of powder was weighed into glass vials. Afterwards a 25 μl metering valve (Bespak, UK) was crimped onto the glass vial and the liquid propellant HFA-134a was added through the nozzle. The final weight of each MDI (without the container and metering valve) was 10 g. The last two steps were performed using a Pamasol P 2016 aerosol filling station (Pamasol Willi Mader AG, Pfäffikon, Switzerland). Prepared MDIs were homogenised in a Bransonic 220 ultrasonic bath (UK) for 1 min.

Row | time to completely settle in suspension [1] | compressibility index ([2]; Carr's index from tap and bulk density) | mass median aerodynamic diameter (MMAD) [3] | sedimentation of powder particles in suspension (observation) ([1]; observed up to four hours) | sedimentation in MDI after 4 hours ([4]; 4 hours) | sedimentation in MDI after seven days ([4]; 7 days) | bulk density [2] | tap density [2] | Structure (SMILES)
1 | ≤ 30 min | 50.3% | 14.4±4.9 μm | – | – | – | – | – | Cc1cc(C)nc(NS(=O)(=O)c2ccc(N)cc2)n1 [Micronised sulfadimidine, sulfadimidine]
2 | – | – | – | completely settle in a matter of seconds | noticeable sedimentation | completely settled | 0.29 g/mL | 0.58 g/mL | NS(=O)(=O)c1cc2c(cc1C(F)(F)F)NC(Cc1ccccc1)NS2(=O)=O (stereo not shown) [raw BFMT, bendroflumethiazide]
3 | – | – | – | – | – | – | 0.341 ± 0.024 g/mL | 0.661 ± 0.023 g/mL | O=C(O)c1cc(=O)c2c(OCC(O)COc3cccc4oc(C(=O)O)cc(=O)c34)cccc2o1 [sodium cromoglycate]
